These results are taken from article PMC4703546 (Bioorganic & medicinal chemistry, 2015).

Data set [1] relates to all c-Met-dependant cell lines. The experiment in a line: MTT proliferation assay, panel summary. In kind it is cell-based. Conditions: Homo sapiens, read-out: IC50 range, antiproliferative activity.
The subject of a further data set is HL-60 cells. Conditions: HL-60, 5 and 10 μM; cited from earlier work.
In data set [2] the test system is c-Met in MDA-MB-231 cells. Nature of the data set: Western blot analysis of c-Met and p-c-Met levels. The data set is classed as cell-based, human. Conditions: MDA-MB-231, 15 and 30 μM, 48 h.
The subject of a further data set is MDA-MB-231/GFP. Nature of the data set: Orthotopic athymic nude mouse xenograft model. The data set is classed as in vivo, athymic nude mice. Conditions: 10 mg/kg i.p. 3 times per week.
The test system of data set [3] is non-tumorigenic human mammary epithelial cells MCF-10A.

A word on the IC50: it is the concentration needed to halve the response being measured.

Each structure is given as a SMILES string.

Consider `C=CC(C)(C)[C@@]12C[C@H]3C(=O)N/C(=C/c4c[nH]cn4)C(=O)N3[C@@H]1Nc1ccccc12` [Roquefortine C (2), roquefortine C], for which, in data set [1], the concentration for half-maximal inhibition (IC50) was 20 to 40 µM.

With `O=C1N[C@@H](Cc2c[nH]c3ccccc23)C(=O)N/C1=C/c1cnc[nH]1` [DHTD (3), dehydrohistidyltryptophenyl-diketopiperazine], the IC50 in data set [1] is 20 to 40 µM.

For `C=CC(C)(C)[C@@]12C=C(O)C(=O)N3/C(=C/c4cn([C@H]5C[C@@]6(O)O[C@@H]7C[C@@]6(C)[C@]6(C[C@]8(C)CCC(C)(C)[C@@H]8[C@@H]76)[C@@H]5C)cn4)C(=O)N[C@]31N(OC)c1ccccc12` [Meleagrin B], in the data set with HL-60 cells, the “cytotoxic mechanism by flow cytometric analysis” value is recorded as “induced HL-60 cells apoptosis”.

`C=CC(C)(C)[C@@]12C=C(O)C(=O)N3/C(=C/c4cnc[nH]4)C(=O)N[C@]31N(OC)c1ccccc12` [Meleagrin (1), meleagrin]: in data set [1], the IC50 was in the range of 1.8 to 8.9 µM. For the same compound, in data set [2], the “effect on phosphorylated (activated) c-Met level” value is “significant reduction” and the “effect on total c-Met level” value is “no effect”. The “effect on body weight gains and gross phenotype” value in the data set on MDA-MB-231/GFP (listed as meleagrin) is reported as “not adversely affecting”. Also, the “effect on body weight gains and gross phenotype” value in the data set with MDA-MB-231/GFP (listed as meleagrin (1)) is “no significant changes”. Also, in data set [3], the “toxicity towards MCF-10A cells” value is reported as “minimal”. Further, in the data set with HL-60 cells, the “cytotoxic mechanism by flow cytometric analysis” value is recorded as “arrested the cell cycle through G2/M phase”.
